Experimental data: US20250313535A1, “ALPHA 4 BETA 7 INTEGRIN MODULATORS AND USES THEREOF” (DICE MOLECULES SV, INC., priority 2022, published 2025)
Like-named read-outs stand apart in the source and are kept apart here.

Tests used:
[1] = target: α4β7 integrin (Homo sapiens (Human), UniProt P13612+P26010); test: Integrin Adhesion Assay: Protocol 4 (MAdCAM-coated plate, RPMI-8866 cells with stable LOF mutation of the ITGB1 gene); assay type: cell-based
In short: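 RPMI-8866 cells with CRISPR/Cas9 knockout of ITGB1 (2×10^6/mL) were added to MAdCAM-coated wells with compound (1% DMSO) in HEPES/NaCl buffer with 1 mM MnCl2, 0.1 mM CaCl2 and 1% BSA, then incubated 1 h at 37 °C. After four washes, adherent cells were quantified by CellTiter-Glo luminescence. Percent inhibition versus DMSO and control compound was fitted to 4-parameter curves.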

[2] = target: α4β1 integrin (Homo sapiens (Human), UniProt P05556+P13612); test: Integrin Adhesion Assay: Protocol 5 (VCAM-coated plate, RPMI-8866 cells with stable LOF mutation of the ITGB7 gene); assay type: cell-based
Chain of α4β1 integrin (P13612 34-1032): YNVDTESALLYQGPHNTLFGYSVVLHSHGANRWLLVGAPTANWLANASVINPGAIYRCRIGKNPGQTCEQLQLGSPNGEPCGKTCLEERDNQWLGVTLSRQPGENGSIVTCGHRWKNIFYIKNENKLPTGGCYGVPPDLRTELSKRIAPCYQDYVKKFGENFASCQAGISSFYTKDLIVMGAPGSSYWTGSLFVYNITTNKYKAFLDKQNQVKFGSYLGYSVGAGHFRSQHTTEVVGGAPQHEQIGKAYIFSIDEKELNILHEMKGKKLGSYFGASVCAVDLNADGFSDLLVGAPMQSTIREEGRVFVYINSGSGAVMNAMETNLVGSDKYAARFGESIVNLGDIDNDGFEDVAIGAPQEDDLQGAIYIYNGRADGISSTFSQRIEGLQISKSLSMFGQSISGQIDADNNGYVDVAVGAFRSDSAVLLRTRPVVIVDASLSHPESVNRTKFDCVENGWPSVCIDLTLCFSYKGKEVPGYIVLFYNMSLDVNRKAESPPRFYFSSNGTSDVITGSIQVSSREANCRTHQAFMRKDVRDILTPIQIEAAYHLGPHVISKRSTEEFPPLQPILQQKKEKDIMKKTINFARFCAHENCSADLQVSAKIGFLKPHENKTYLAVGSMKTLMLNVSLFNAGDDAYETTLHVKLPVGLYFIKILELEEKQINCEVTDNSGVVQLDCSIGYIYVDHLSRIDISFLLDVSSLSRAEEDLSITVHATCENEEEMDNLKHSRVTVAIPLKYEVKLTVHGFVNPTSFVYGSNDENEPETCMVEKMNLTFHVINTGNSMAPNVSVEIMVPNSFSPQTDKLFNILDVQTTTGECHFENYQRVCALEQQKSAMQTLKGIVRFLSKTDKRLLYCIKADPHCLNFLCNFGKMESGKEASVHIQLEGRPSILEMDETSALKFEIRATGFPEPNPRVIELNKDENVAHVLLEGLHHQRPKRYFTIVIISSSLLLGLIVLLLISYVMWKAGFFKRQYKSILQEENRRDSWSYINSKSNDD
Chain of α4β1 integrin (P05556 21-798): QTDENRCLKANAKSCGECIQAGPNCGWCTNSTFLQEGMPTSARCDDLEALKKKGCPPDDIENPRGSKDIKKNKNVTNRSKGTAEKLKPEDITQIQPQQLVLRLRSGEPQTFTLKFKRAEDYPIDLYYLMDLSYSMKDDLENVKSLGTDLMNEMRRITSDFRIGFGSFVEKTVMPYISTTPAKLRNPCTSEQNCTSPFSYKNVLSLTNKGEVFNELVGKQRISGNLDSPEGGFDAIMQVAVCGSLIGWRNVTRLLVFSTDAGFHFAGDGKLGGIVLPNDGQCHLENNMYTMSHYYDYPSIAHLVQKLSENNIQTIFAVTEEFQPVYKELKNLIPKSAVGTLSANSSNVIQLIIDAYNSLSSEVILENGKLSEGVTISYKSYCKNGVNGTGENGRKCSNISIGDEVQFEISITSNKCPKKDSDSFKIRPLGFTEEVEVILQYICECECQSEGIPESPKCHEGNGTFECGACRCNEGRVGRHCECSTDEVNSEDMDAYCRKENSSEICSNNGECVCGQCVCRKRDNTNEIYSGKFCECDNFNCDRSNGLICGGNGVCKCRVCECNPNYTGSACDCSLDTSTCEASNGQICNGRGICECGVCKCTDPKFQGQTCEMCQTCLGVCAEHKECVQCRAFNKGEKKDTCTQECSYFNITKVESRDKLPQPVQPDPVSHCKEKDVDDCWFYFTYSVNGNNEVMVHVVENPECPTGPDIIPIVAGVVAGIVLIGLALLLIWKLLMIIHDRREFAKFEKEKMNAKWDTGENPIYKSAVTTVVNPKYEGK
In short: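 RPMI-8866 B cells with CRISPR/Cas9 ITGB7 knockout (clonal, verified by flow cytometry) adhered to VCAM-coated wells for 1 h at 37° C in HEPES/NaCl buffer with 1 mM MnCl2, 0.1 mM CaCl2, 1% BSA, 1% DMSO. Bound cells quantified by CellTiter-Glo luminescence after washing; % inhibition versus DMSO and control, 4-parameter fit.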

[3] = Protocol 4, RPMI-8866 cells with LOF mutation of ITGB1, MAdCAM, read-out: Mean IC50 α4β7 KO
[4] = Protocol 5, RPMI-8866 cells with LOF mutation of ITGB7, VCAM, read-out: Mean IC50 α4β1 KO
[5] = RPMI-8866 cells with stable LOF mutation of the ITGB1 gene, read-out: Mean IC50 α4β7 KO^a
[6] = RPMI-8866 cells with stable LOF mutation of the ITGB7 gene, read-out: Mean IC50 α4β1 KO^b

Chain of α4β7 integrin (P13612 34-1032): as the sequence (P13612 34-1032) above
Chain of α4β7 integrin (P26010 20-798): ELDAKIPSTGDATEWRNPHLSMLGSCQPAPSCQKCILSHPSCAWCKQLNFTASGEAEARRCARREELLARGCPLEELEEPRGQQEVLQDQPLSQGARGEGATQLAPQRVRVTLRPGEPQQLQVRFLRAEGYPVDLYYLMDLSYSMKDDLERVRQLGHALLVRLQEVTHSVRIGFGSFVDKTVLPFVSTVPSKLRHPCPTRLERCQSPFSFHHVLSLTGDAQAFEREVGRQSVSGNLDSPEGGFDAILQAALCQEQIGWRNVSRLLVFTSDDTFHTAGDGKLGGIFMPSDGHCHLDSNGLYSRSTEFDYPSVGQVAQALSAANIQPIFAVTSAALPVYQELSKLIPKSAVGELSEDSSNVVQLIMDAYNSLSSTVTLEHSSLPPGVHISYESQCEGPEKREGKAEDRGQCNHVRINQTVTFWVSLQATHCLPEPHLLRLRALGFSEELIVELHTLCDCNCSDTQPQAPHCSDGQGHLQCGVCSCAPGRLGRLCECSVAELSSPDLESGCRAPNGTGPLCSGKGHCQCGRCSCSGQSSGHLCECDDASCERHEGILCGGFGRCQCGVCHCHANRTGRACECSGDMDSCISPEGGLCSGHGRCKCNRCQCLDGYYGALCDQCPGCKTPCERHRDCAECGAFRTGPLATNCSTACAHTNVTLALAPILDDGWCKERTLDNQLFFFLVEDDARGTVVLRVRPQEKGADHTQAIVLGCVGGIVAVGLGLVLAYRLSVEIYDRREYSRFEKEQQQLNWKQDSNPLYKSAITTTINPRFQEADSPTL

Structure (SMILES)	IC50 [1, 3]	IC50 [2, 4]	IC50 [1, 5]	IC50 [2, 6]
COc1ccc(CN2CC3C(C2)C3(C)C)c(OC)c1-c1cccc2c(C[C@H](NC(=O)C3(C(F)(F)F)CCN(CC(F)(F)F)CC3)C(=O)O)cccc12 (stereo partly shown) [Compound 817]	< 10 nM	100 to 1000 nM	–	–
Cc1cccc(F)c1C(=O)N[C@@H](Cc1cccc2c(-c3c(C(F)(F)F)c4cc(CCCN(C)C)ccc4n(C)c3=O)cccc12)C(=O)O [Compound 1053]	< 10 nM	100 to 1000 nM	–	–
COc1ccc(C2(N(C)C)CC2)c(OC)c1-c1cccc2c(C[C@H](NC(=O)c3c(C)cccc3F)C(=O)O)cccc12 [Compound 1045]	< 10 nM	100 to 1000 nM	–	–
COc1ccc(CCN2CCC(F)(F)CC2)c(OC)c1-c1cccc2c(C[C@H](NC(=O)C3(C(F)(F)F)CCN(CC(F)(F)F)CC3)C(=O)O)cccc12 [Compound 958]	< 10 nM	100 to 1000 nM	–	–
COc1ccc(CN2CC(OC(C)(C)C)C2)c(OC)c1-c1cccc2c(C[C@H](NC(=O)C3(C(F)(F)F)CCN(CC(F)(F)F)CC3)C(=O)O)cccc12 [Compound 657]	–	–	< 10 nM	> 1000 nM
COc1cc(CCN(C)C)cc(OC)c1-c1cccc2c(C[C@H](NC(=O)C3(C(F)(F)F)CCN(CC(F)(F)F)CC3)C(=O)O)cccc12 [Compound 531]	–	–	< 10 nM	100 to 1000 nM
COc1cc(CN2CCCCC2)cc(OC)c1-c1cccc2c(C[C@H](NC(=O)c3c(C)cccc3F)C(=O)O)cccc12 [Compound 1019]	< 10 nM	100 to 1000 nM	–	–
Cn1c(=O)c(-c2cccc3c(C[C@H](NC(=O)C4(C(F)(F)F)CCN([C@@H]5CCC(F)(F)C5)CC4)C(=O)O)cccc23)c(C(F)(F)F)c2ccccc21 [Compound 494]	–	–	10 to 100 nM	100 to 1000 nM
COc1cccc(CN2CCC(C(C)(C)C)CC2)c1-c1cccc2c(C[C@H](NC(=O)c3c(C)cccc3F)C(=O)O)cccc12 [Compound 1027]	< 10 nM	100 to 1000 nM	–	–
Cc1cccc(F)c1C(=O)N[C@@H](Cc1cccc2c(-c3c(C(F)(F)F)c4cc(CCN5CCC(F)(F)C5)ccc4n(C)c3=O)cccc12)C(=O)O [Compound 712]	10 to 100 nM	> 1000 nM	–	–
O=C(O)[C@H](Cc1cccc2c(-c3nccc4ccc(CCCN5CCC6(CC5)CC6)cc34)cccc12)NC(=O)C1(C(F)(F)F)CCN(C2COC2)CC1 [Compound 773]	< 10 nM	100 to 1000 nM	–	–
COc1ccc(CN2CCN(CC(C)C)CC2)c(OC)c1-c1cccc2c(C[C@H](NC(=O)C3(C(F)(F)F)CCN(CC(F)(F)F)CC3)C(=O)O)cccc12 [Compound 805]	< 10 nM	100 to 1000 nM	–	–
CCOCCN1CCC(C(=O)N[C@@H](Cc2cccc3c(-c4c(C(F)(F)F)c5ccccc5n(C)c4=O)cccc23)C(=O)O)(C(F)(F)F)CC1 [Compound 503]	–	–	10 to 100 nM	100 to 1000 nM
COc1ccc(CN(C)CCF)c(OC)c1-c1cccc2c(C[C@H](NC(=O)c3c(C)cccc3F)C(=O)O)cccc12 [Compound 636]	–	–	< 10 nM	100 to 1000 nM
Cc1cccc(F)c1C(=O)N[C@@H](Cc1cccc2c(-c3nccc4c(CN5CCCC5)cccc34)cccc12)C(=O)O [Compound 619]	–	–	< 10 nM	> 1000 nM
CN(C)Cc1ccc2c(c1)c(C(F)(F)F)c(-c1cccc3c(C[C@H](NC(=O)c4c(F)cccc4CN4CCC(F)(F)CC4)C(=O)O)cccc13)c(=O)n2C [Compound 701]	10 to 100 nM	> 1000 nM	–	–
COc1ccnc(OC)c1-c1cccc2c(C[C@H](NC(=O)c3c(C)cccc3F)C(=O)O)cccc12 [Compound 527]	–	–	10 to 100 nM	> 1000 nM
COc1c2c(cc(C)c1-c1cccc3c(C[C@H](NC(=O)C4(C(F)(F)F)CCN(CC(F)(F)F)CC4)C(=O)O)cccc13)CCN(C)C2 [Compound 735]	< 10 nM	> 1000 nM	–	–
CC1(C(=O)N[C@@H](Cc2cccc3c(-c4ncc(CN5CCCCC5)c5ccccc45)cccc23)C(=O)O)CC2CCC(C1)N2C1COC1 (stereo partly shown) [Compound 685]	–	–	10 to 100 nM	> 1000 nM
COc1cccc(CCN2CCC(F)CC2)c1-c1cccc2c(C[C@H](NC(=O)c3c(C)cccc3F)C(=O)O)cccc12 [Compound 1035]	10 to 100 nM	> 1000 nM	–	–
COc1ccc(CN2CCCCC2)c(OC)c1-c1cccc2c(C[C@H](NC(=O)c3c(F)cccc3-c3ccccc3)C(=O)O)cccc12 [Compound 648]	–	–	< 10 nM	> 1000 nM
COc1ccc(CN2CCC(F)(F)CC2)c(OC)c1-c1cccc2c(C[C@H](NC(=O)C3(C(F)(F)F)CCN(CC(F)(F)F)CC3)C(=O)O)cccc12 [Compound 780]	10 to 100 nM	> 1000 nM	–	–
O=C(O)[C@H](Cc1cccc2c(-c3ncc(CN4C5CCCC4CC5)c4ccccc34)cccc12)NC(=O)C1(C(F)(F)F)CCN(CC(F)F)CC1 [Compound 911]	< 10 nM	> 1000 nM	–	–
CC1(C(=O)N[C@@H](Cc2cccc3c(-c4ncc(CN5CCCCC5)c5ccccc45)cccc23)C(=O)O)CC2CCC(C1)N2CC(F)F (stereo partly shown) [Compound 684]	–	–	10 to 100 nM	> 1000 nM
COc1ccc(CN2CCN(Cc3ccc(C(F)(F)F)cc3)CC2)c(OC)c1-c1cccc2c(C[C@H](NC(=O)C3(C(F)(F)F)CCN(CC(F)(F)F)CC3)C(=O)O)cccc12 [Compound 806]	10 to 100 nM	> 1000 nM	–	–
O=C(O)[C@H](Cc1cccc2c(-c3cc(CN4CCC(F)(F)C4)cc4ccncc34)cccc12)NC(=O)C1(C(F)(F)F)CCN(C2COC2)CC1 [Compound 598]	–	–	10 to 100 nM	> 1000 nM
O=C(O)[C@H](Cc1cccc2c(-c3nccc4ccccc34)cccc12)NC(=O)C1(C(F)(F)F)CCN(CC(F)(F)F)CC1 [Compound 723]	10 to 100 nM	> 1000 nM	–	–
COc1ccc(CN2CCCCC2)c(OC)c1-c1cccc2c(C[C@H](NC(=O)c3c(F)cccc3Br)C(=O)O)cccc12 [Compound 665]	–	–	< 10 nM	100 to 1000 nM

Next, values leading:

IC50 [1, 3]	IC50 [2, 4]	IC50 [1, 5]	IC50 [2, 6]	Structure (SMILES)
< 10 nM	> 1000 nM	–	–	O=C(O)[C@H](Cc1cccc2c(-c3ncc(CN4CCCCC4)cc3C3CC3)cccc12)NC(=O)C1(C(F)(F)F)CCN(CC(F)F)CC1 [Compound 898]
< 10 nM	> 1000 nM	–	–	O=C(O)[C@H](Cc1cccc2c(-c3ncc(CN4CCOCC4)c4ccccc34)cccc12)NC(=O)C1(C(F)(F)F)CCN(CC(F)(F)F)CC1 [Compound 862]
< 10 nM	100 to 1000 nM	–	–	O=C(O)[C@H](Cc1cccc2c(-c3ncc(CN4CCCC5(CC5)C4)c4ccccc34)cccc12)NC(=O)C1(C(F)(F)F)CCN(CC(F)(F)F)CC1 [Compound 904]
–	–	< 10 nM	> 1000 nM	COc1cccc(CN2CCCCC2)c1-c1cccc2c(C[C@H](NC(=O)C3(C(F)(F)F)CCN(CC(F)(F)F)CC3)C(=O)O)cccc12 [Compound 566]
< 10 nM	> 1000 nM	–	–	O=C(O)[C@H](Cc1cccc2c(-c3ncc(CN4CCN(C5CC5)CC4)c4ccccc34)cccc12)NC(=O)C1(C(F)(F)F)CCN(CC(F)(F)F)CC1 [Compound 868]
< 10 nM	> 1000 nM	–	–	COc1cccc(CCN2CCC[C@H](F)C2)c1-c1cccc2c(C[C@H](NC(=O)C3(C(F)(F)F)CCN(CC(F)F)CC3)C(=O)O)cccc12 [Compound 969]
10 to 100 nM	> 1000 nM	–	–	O=C(O)[C@H](Cc1cccc2c(-c3ccc(CN4CCCC(F)C4)c4ccncc34)cccc12)NC(=O)C1(C(F)(F)F)CCN(CC(F)(F)F)CC1 (stereo partly shown) [Compound 989]
< 10 nM	> 1000 nM	–	–	O=C(O)[C@H](Cc1cccc2c(-c3ncc(CN4CCCCC4)c4ccccc34)cccc12)NC(=O)C1(C(F)(F)F)CCN(CC(F)(F)F)CC1 [Compound 787]
10 to 100 nM	100 to 1000 nM	–	–	COc1ccc2cc(CN3CCCCC3)cnc2c1-c1cccc2c(C[C@H](NC(=O)C3(C(F)(F)F)CCN(CC(F)(F)F)CC3)C(=O)O)cccc12 [Compound 733]
< 10 nM	> 1000 nM	–	–	O=C(O)[C@H](Cc1cccc2c(-c3ncc(CN4CCCC(F)(F)CC4)c4ccccc34)cccc12)NC(=O)C1(C(F)(F)F)CCN(CC(F)F)CC1 [Compound 915]
10 to 100 nM	> 1000 nM	–	–	O=C(O)[C@H](Cc1cccc2c(-c3cccc4c(CN5CCCCC5)cncc34)cccc12)NC(=O)C1(C(F)(F)F)CCN(CC(F)(F)F)CC1 [Compound 803]
–	–	< 10 nM	> 1000 nM	O=C(O)[C@H](Cc1cccc2c(-c3ncc(CN4CCCCC4)c4ccccc34)cccc12)NC(=O)C1(C(F)(F)F)CCN(CCC(F)(F)F)CC1 [Compound 682]
< 10 nM	> 1000 nM	–	–	O=C(O)[C@H](Cc1cccc2c(-c3ncc(CCN4CCC[C@@H](F)C4)c4ccccc34)cccc12)NC(=O)C1(C(F)(F)F)CCN(CC(F)(F)F)CC1 [Compound 977]
–	–	10 to 100 nM	> 1000 nM	N#CC1(C(=O)N[C@@H](Cc2cccc3c(-c4ncc(CN5CCCCC5)c5ccccc45)cccc23)C(=O)O)CCN(CC(F)(F)F)CC1 [Compound 677]
< 10 nM	> 1000 nM	–	–	O=C(O)[C@H](Cc1cccc2c(-c3ncc(CN4CCCCC4)c4ccccc34)cccc12)NC(=O)C1(C(F)(F)F)CCN(CC(F)F)CC1 [Compound 888]
< 10 nM	> 1000 nM	–	–	O=C(O)[C@H](Cc1cccc2c(-c3ncc(CN4CCC[C@H](F)C4)cc3C3CC3)cccc12)NC(=O)C1(C(F)(F)F)CCN(CC(F)(F)F)CC1 [Compound 950]
